Laboratory results as given in patent US10676746B2, “Methods for identifying therapeutic targets and treating monitoring cancers” (Fred Hutchinson Cancer Research Center, priority 2013, dated 2020).
“Also recorded” adds a separate entry of the source.

How the values were obtained:
[1] = tested on: MSCC cells; test: Dose-response curves with kinase inhibitors, CellTiterGlo viability, MSCC cells; assay type: cell-based, murine; conditions: for IC50: Mus musculus
Description: (§1) Kinase inhibition dose response curves were performed with six kinase inhibitors (MK-1775 (a.k.a., […]), TAE684, PI828, PIK93, PP2, PF-562271) against kinase targets (WEE1, ALK, PI3K, PIK4CB, FYN, FAK (ILK surrogate)), respectively. Kinase inhibitors: MK-1775 (S1525), PIK93 (S1489), TAE684 (S1108) were obtained from Selleck Chemicals (Houston, Tex.); PI828 (2814), PP2 (1407) from Tocris Bioscience (Mpls, Minn.), and PF-562271 from Synkinase (San Diego, Calif.). All HNSCC (UMSCC-17A, UM-SCC47A, PCI-15A, PCI-15B, UM-SCC14A, UM-SCC14C) and MSCC (CK1: p53+/+ and CK4: p53−/−) cells were plated at ˜5-10×10^3 cells/100 μl per well, and incubated at 37° C. for ˜24 hours on 96-well assay plates (Corning Inc.). Serial dilutions of the kinase inhibitors and vehicle control (DMSO) were prepared in 1 mL assay blocks at 3× working concentration to generate dose-response curves ranging from 100 μM to 0.03 μM. All serial dilutions were prepared using cell culture media. Approximately 72 hours post-treatment, cells were assessed for metabolic activity via ATP using CellTiterGlo (Promega), following the protocol outlined by the manufacturer utilizing an FLx800, and/or a Synergy H4 Hybrid multi-mode reader (Biotek). All assays were performed in triplicate and normalized to wells with no treatment. Dose-response curves and IC50 values were generated using GraphPad Prism Version 5 (Parameters: nonlinear regression fit; equation=log (inhibitor) vs. response−variable slope (four parameters); single constraint).

[2] = tested on: HNSCC cells; test: Dose-response curves with kinase inhibitors, CellTiterGlo viability, HNSCC cells; assay type: cell-based, human; conditions: for IC50: Homo sapiens; for effect on viability of p53 mutant HNSCC cells: autologous pairs UMSCC-14A, UMSCC-14C, PCI-15A, PCI-15B, result in words
Description: as §1

[3] = tested on: HNSCC cells (PCI-15B, UMSCC-17A); test: Mitotic entry and cell cycle analysis by flow cytometry; assay type: cell-based, human; conditions: for mitotic entry, phospho-histone H3 (serine 10): 1 μM
Description: (§2) Mitotic entry was assessed as previously described (Aarts, M. et al, Cancer Discov 2012; 2:524-39). Briefly, HNSCC cells (PCI-15B, UMSCC-17A) were treated with 1 μM MK-1775 for 8 and 24 hours, and all cells were harvested, washed, and incubated with rabbit monoclonal antibody to phospho-histone H3 (Serine10) (Cell Signaling Technology, Cat. No. 3465, Danvers, Mass.) for 2 hours at RT, washed, and DNA stained with 20 μg/ml propidium iodide, RNaseA in PBS (Sigma-Aldrich; Cat. Nos. P4170, R6513). Flow cytometric analysis was performed utilizing a BD FACS Canto II, and profiles analyzed with BD Cell Quest software (Becton Dickinson, CA). Caspase-3/7 dependent apoptosis was assessed as per protocol (Promega, Cat. No. G8091) utilizing a SynergyH4 Hybrid Reader (Biotek, VT). AUCs were calculated for all treatments and vehicle (DMSO) for all cell lines utilizing two measurements over a 48-hour period with three concentrations (30 nm, 100 nm, 1 μM) of MK-1775.

[4] = tested on: HNSCC cells; test: Caspase-3/7 dependent apoptosis assay; assay type: cell-based, human; conditions: p53 mutant cells
Description: as §2

[5] = tested on: PCI-15B xenografts; test: Xenograft tumor model; assay type: in vivo, mice
[6] = tested on: WEE1; test: Immunoblotting of xenograft tumor lysates; assay type: in vivo; conditions: oral MK-1775 treated mice vs vehicle
Description: Tumor tissues were minced and homogenized on ice in M-PER Mammalian Protein Extraction Reagent supplemented with Halt Protease and Phosphatase Inhibitor Cocktail (Thermo Fisher Scientific). Extracted proteins were quantified by a BCA protein assay (Thermo Fisher Scientific). […] Anti-WEE1 (Cat. No. 4936), anti-phospho-WEE1 ([…]) (Cat. No. 4910), anti-CDC2 (Cat. No. 9112), and anti-phospho-CDC2 (Tyr15) (Cat. No. 4539) antibodies were purchased from Cell Signaling Technology (Danvers, Mass.). The secondary antibodies used were ZyMaxTM horseradish peroxidase (HRP) conjugated goat-anti-rabbit IgG (Life Technologies). HRP was detected with SuperSignal West Pico Chemiluminescent Substrate kit (Thermo Fisher Scientific).

[7] = parameters: species or system mice; conditions: mouse, in vivo
Description: PCI-15B cells were inoculated subcutaneously into the right flanks of 28 eight-week old NOD/SCID IL2 gamma null mice (NSG) provided by the Olson laboratory at the Fred Hutchinson Cancer Research Center. When tumors reached a palpable mass of >50 mm^3, mice were randomly assigned into four treatment groups of seven mice each and all measurements and treatment regimens were carried out using a double-blind protocol. The WEE1 inhibitor MK-1775 (S1525-Selleck Chemicals, Houston, Tex.) was delivered by oral gavage (30 mg/kg) twice per week for 4 weeks in dimethylsulfoxide in 0.5% methylcellulose (M0512, Sigma Aldrich) in a 1:14 suspension. Cisplatin (P4394, cis-diammineplatinum (II) dichloride, Sigma Aldrich) was delivered via intra-peritoneal injection (4.0 mg/kg) once a week for 4 weeks. The volume of the implanted tumor was measured weekly with calipers and tumor volumes calculated using the formula: V=L×W^2/2; in which V, volume (mm^3); L, largest diameter (mm); W, smallest diameter (mm). All animal protocols were approved by the Fred Hutchinson Cancer Research Center Laboratory Animal Care and Use Committee.

[8] = p53−/− (p53 deficient) MSCC cells

## NC(=O)Nc1cc(-c2cccc(F)c2)sc1C(=O)N[C@H]1CCCNC1 [AZD7762]
[1]; p53 wild type MSCC cells
  IC50: 2200 nM
[1]; [8]
  IC50: 130 nM

## C=CCn1c(=O)c2cnc(Nc3ccc(N4CCN(C)CC4)cc3)nc2n1-c1cccc(C(C)(C)O)n1 [MK-1775]
[2]; UMSCC14A, p53 mutant UMSCC-14A and UMSCC-14C cells and p53 wild type UMSCC-47 cells (intermediate)
  IC50: 580 to 1100 nM
[2]; p53 mutant PCI-15A and PCI-15B HNSCC cells
  IC50: 140 to 170 nM
[2]; p53 wild type UMSCC-17A cells
  IC50: 4500 nM
[2]
  effect on viability of p53 mutant HNSCC cells: sensitive; also recorded: impairs viability
[1]; p53 wild type MSCC cells
  IC50: 4500 nM
[1]; [8]
  IC50: 220 nM
[1]; p53−/− vs p53 wild type MSCC
  IC50 lower in p53−/− MSCC cells compared to p53 wild type cells: 20 fold
[3]; p53 mutant cells
  4N DNA content: loss
  subG1 DNA content: increase
[3]; p53 mutant cells (PCI-15B)
  mitotic entry, phospho-histone H3 (serine 10): unscheduled mitotic entry
[3]; p53 wild type cells (UMSCC-17A)
  mitotic entry, phospho-histone H3 (serine 10): not
[4]
  apoptotic marker caspase 3/7: activation
[5]; 30 mg/kg oral gavage twice weekly, 4-week protocol
  inhibition of growth of HNSCC tumors as compared to vehicle: 66%
[6]
  phosphorylation of WEE1 in tumor lysates: reduced phosphorylation
  phosphorylation of WEE1 substrate CDC2 in tumor lysates: reduced phosphorylation
[7]
  tolerability of dosing regime: well-tolerated

## CN(c1ncccc1CNc1nc(Nc2ccc3c(c2)CC(=O)N3)ncc1C(F)(F)F)S(C)(=O)=O [PF-562271]
[2]
  effect on viability of p53 mutant HNSCC cells: sensitive; also recorded: impairs viability

## Nc1ccc(-c2cccc3c(=O)cc(N4CCOCC4)oc23)cc1 [PI828]
[2]
  effect on viability of p53 mutant HNSCC cells: impairs viability

## CC(=O)Nc1nc(C)c(-c2ccc(Cl)c(S(=O)(=O)NCCO)c2)s1 [PIK93]
[2]
  effect on viability of p53 mutant HNSCC cells: sensitive; also recorded: impairs viability

## CC(C)(C)n1nc(-c2ccc(Cl)cc2)c2c(N)ncnc21 [PP2]
[2]
  effect on viability of p53 mutant HNSCC cells: impairs viability

## COc1cc(N2CCC(N3CCN(C)CC3)CC2)ccc1Nc1ncc(Cl)c(Nc2ccccc2S(=O)(=O)C(C)C)n1 [TAE684]
[2]
  effect on viability of p53 mutant HNSCC cells: sensitive; also recorded: impairs viability

## N.N.[Cl][Pt][Cl] [cisplatin, cis-diammineplatinum (II) dichloride]
[5]; cisplatin 4.0 mg/kg i.p. once a week, 4 weeks, MK-1775 given 24 hours after cisplatin
  tumor regression (reduction): 60%
